Test results reported in paper PMC7139703, “Thiopurine Derivative-Induced Fpg/Nei DNA Glycosylase Inhibition: Structural, Dynamic and Functional Insights” (International Journal of Molecular Sciences, 2020).
Where two headings read alike, the source gives them in different places.

Columns and labels:
[1] = target: T1, LlFpg (Lactococcus lactis subsp. cremoris, UniProt P42371); assay: LlFpg 8-oxoG-DNA glycosylase/AP lyase activity assay (Urea-PAGE radioassay); format: biochemical; conditions: for IC50: catalytic activity at 37 °C, compound stock (redox mixture) in DMSO, 20 nM 8-oxoG:C 24-mer, 2 nM LlFpg
T1 construct: made in house; host or cells: E. coli BH540 (fpg defective)
Description: Figure 1 Effect of 2-thioxanthine (2TX)-derivatives on Fpg activity. A total of 20 nM of 5′-[^32P]-8-oxoG-containing 24-bp DNA duplex (labeled on the damaged strand) was incubated with 2 nM of LlFpg alone (dimethyl sulfoxide (DMSO) control) or with the indicated 2TX and 2TX-derivatives (TXn) concentrations, as described in the “Materials and Methods” section. (a) Screening of TXn for Fpg inhibition. Averages and standard deviations were obtained from at least three independent experiments. Mono- and di-thiolated compounds are highlighted in red and blue, respectively. (b) Dose-response curves for best inhibitors. Each data point represents the mean value obtained from at least three independent measurements.
Fpg, hNeil1 and mvNei1 are bifunctional DNA glycosylases associated with concerted DNA glycosylase activity (cleavage of the N-glycosidic bond between the base lesion and the C1′ of the deoxyribose) and AP lyase activity that comprises the successive cleavage of the phosphodiester bonds at the 3′ and 5′ of the resulting abasic (AP) site, respectively (β, δ-elimination). Thus, AP sites that result from the excision of the damaged base are quantitatively converted into one nucleoside gap by these enzymes. The DNA glycosylase/AP lyase activity of each enzyme was measured by incubating 20 nM of 24-mer DNA duplexes ([OG:C] and [DHU:G] for Fpg and hNeil1/mvNei1, respectively) 5′-labeling on the damaged strand (see above) with 2 nM of Fpg, or mvNei1 for 15 min or, with 20 nM of hNeil1 for 30 min at 37 °C in 10 mM Tris-HCl, pH 7.6, 150 mM NaCl, 1 mM EDTA, 0.1 mg/mL BSA and 8% DMSO. The reaction was stopped by the addition of 1 volume of formamide loading buffer (96% formamide, 20 mM Tris/HCl pH 8.0 and 2 mM Na2EDTA), heated at 80 °C for 2 min and then analyzed by 20% Urea-PAGE, as previously described. […] Under these conditions, only 50% of the substrate is converted to the cleavage product (limiting enzyme concentration conditions). For an initial evaluation of the inhibitory effect, 40 µM of 2TX/TXn was used. The thio-compound was added to the reaction mixture before the final addition of the enzyme (competition condition). For the best identified inhibitors, a dose-response curve was generated and IC50^A determined (Figure 1 and Table 1).

[2] = target: T2, LlFpg/DNA complex C2 (Lactococcus lactis subsp. cremoris, UniProt P42371); assay: EMSA, Fpg DNA binding to 14-mer [THF:C] duplex, non-specific complex C2 (Fpg/DNA 2/1); conditions: for effect on stability of preformed complex C2 in the presence of TCEP: [1/1] molar ratio TCEP/compound (1 mM each), Figure S6; for number of TXn equivalents per one protein equivalent for 50% inhibition of DNA binding activity, C2: value in parentheses, 10 nM Fpg
T2 construct: made in house; host or cells: E. coli BH540 (fpg defective)
T2 sequence (P42371 2-273 limits assumed): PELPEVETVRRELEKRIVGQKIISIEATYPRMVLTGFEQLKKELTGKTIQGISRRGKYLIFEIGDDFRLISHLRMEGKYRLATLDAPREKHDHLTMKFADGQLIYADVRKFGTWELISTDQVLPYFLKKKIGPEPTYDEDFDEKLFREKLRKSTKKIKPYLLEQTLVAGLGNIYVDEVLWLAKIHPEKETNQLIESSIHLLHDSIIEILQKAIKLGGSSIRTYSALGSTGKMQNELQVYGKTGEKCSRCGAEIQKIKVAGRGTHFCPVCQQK
Excerpt: To complement this study, we examined the effect of TXn on the binding of Fpg to a short DNA duplex containing a tetrahydrofuran (THF), a non-cleavable AP site analog. The enzyme specifically recognizes THF and forms a stable abortive complex with DNA [18, 34, 35, 36]. […] A representative titration experiment (with and without TCEP) of the 14-mer [THF:C] Fpg formed two stable complexes with this short DNA probe that were easily observed by EMSA: a high-affinity complex C1 corresponding to the lesion recognition complex (LRC), with nanomolar affinity, and a complex C2 only observed at higher Fpg concentrations. C2 results in C1 titration by a second Fpg molecule. This finding illustrates that the crystal structure of Fpg bound to 8-oxoG-carbanucleotide-containing DNA [38] (Figure S5). The stability of each preformed complex was then examined by EMSA in the presence of 2TX or TXn. […] The enzyme inactivation mediated by 2TX through ZnF oxidation that directly affects the DNA binding properties of the enzyme is also in agreement with this last observation.
The inhibitor concentrations that induced the loss of the half-maximal binding (IC50app^B) were determined from these curves and are reported in Table 1. IC50app^B compared well with IC50app^A. As observed above for the enzyme activity, strong reducers, such as TCEP, abolished the negative effects of 2TX and TXn on Fpg/DNA complex stability and formation. These findings again indicate that inhibition by thio-compounds essentially relies on the oxidation of the Fpg ZnF (for an example, see experiment with TX19, Figure S4). […] This troubling and unexpected observation led us to evaluate this effect with the TXn small library compounds. To prevent a side effect due to a possible partial reduction by TCEP, we performed EMSA in the presence of a 6.7-fold molar excess of TCEP with respect to 2TX and TXn after complex formation (Figure 3).
Figure 3 Impact of TXn on the non-specific Fpg/DNA complex C2 stability in highly reducing conditions. EMSA was performed as described in the ‘Material & Methods’, except TCEP was added at a 2 mM final concentration in each binding assay. (a) Representative experiment at 0.3 mM 2TX and more efficient TXn; (b) Dose-response with the best TXn. Upper panel: Representative EMSA experiment with TX10. Lower panel: Dose-response curves with the indicated TXn.
The DNA binding activity was measured using EMSA [37]. Briefly, 0.1 nM of the 5′-labeled 14-mer [THF:C] (see above) was incubated with the enzyme at 4 °C for 30 min in 25 mM HEPES/NaOH (pH 7.5), 150 mM NaCl, 5% glycerol, 0.1 mg/mL BSA and 8% DMSO. The incubation mixture was then loaded onto a native 10% polyacrylamide gel (Acryl/Bis 19/1) and electrophoresed at 25 V/cm for 90 min at 4 °C. After electrophoresis, the gels were dried and exposed overnight for autoradiography using a Typhoon imager and quantified with ImageQuant software. To evaluate the inhibitor effect of 2TX/TXn on the DNA binding activity of each Fpg/Nei enzyme, we first determined the experimental conditions required to bind 50% of the DNA probes without an inhibitor in the presence of 8% DMSO (limiting enzyme concentration). Under these conditions, we obtained the half-maximal DNA binding 0.25, 7 and 5 nM of Fpg, hNeil1 and mvNei1. We used this limited enzyme concentrations to evaluate the inhibitor effect of 2TX/TXn on the enzyme DNA binding activity. This effect was determined by the addition of the thio-compound in the pre-equilibrium mixture of the enzyme and DNA probe (30 min) and incubated for an additional 30 min at 4 °C. For the best inhibitors of Fpg, a dose-response curve was established from at least three independent experiments and the IC50 was determined (IC50^B, Table 1). […]
Rieux et al. Thiopurine derivative-induced Fpg/Nei DNA glycosylase inhibition:
structural, dynamic and functional insights
Figure S6. […]

[3] = IC50app^A (Fpg/Nei enzyme catalysis) LlFpg
[4] = read-out: IC50app^A (Fpg/Nei enzyme catalysis) LlFpg

| SMILES | IC50 [1, 3] | effect on stability of preformed complex C2 in the presence of TCEP [2] | number of TXn equivalents per one protein equivalent for 50% inhibition of DNA binding activity, C2 [2] | IC50 [1, 4] | effectiveness on Fpg relative to 2TX ([1]; from IC50app^A) |
| --- | --- | --- | --- | --- | --- |
| O=c1[nH]c2[nH]c(=S)[nH]c(=O)c2[nH]1 [TX14, 2-thio-6,8-dioxopurine] | 28 ± 7 µM | moderate effect | NA (2.8) | – | – |
| Nc1ncnc2[nH]c(S)nc12 [TX27] | 20 ± 2 µM | strongly destabilized | NA (4) | – | – |
| O=c1[nH]c(=S)[nH]c2nc[nH]c12 [Compound 2TX, 2-thioxanthine, reference compound] | – | moderate effect | NA (9.7) | 48 ± 4 µM | – |
| FC(F)(F)c1nc(S)c2nc[nH]c2n1 [TX13, 2-trifluoromethyl-6-thiopurine] | – | strongly destabilized | NA (1.3) | 7.5 ± 1 µM | seven times more effective than 2TX |
| O=c1[nH]c(=S)[nH]c2[nH]c(=S)[nH]c12 [TX19] | – | moderate effect | NA (2) | 15 ± 1 µM | – |
